Experimental data taken from US11077177B2, “Universal cancer vaccine” (priority 2016, dated 2021).

What was measured:
[1] = system: HLA molecule (types A1, A2, A3, A11, A24, B7 and B44); assay: HLA type bound by altered telomerase peptides (Table 1); format: binding, human; conditions: MHC class I HLA type bound by the peptide; no test method described; listed as SEQ ID NO: 13
CD 8+ T cell repertoire = assay: Tetramer staining of peripheral blood mononuclear cells by flow cytometry after immunization with an altered peptide (FIG. 3B); format: cell-based

With “YLFFYRKSV (listed as Homo sapiens) [SEQ ID 13]” the “HLA TYPE BOUND” value [1] was “HLA-A2” and the “expansion of CD 8+ T cell repertoire cross-reacting with the naturally occurring peptide” value (CD 8+ T cell repertoire) was “this approach is feasible”.
